According to patent publication US8426449B2, “Aminoalkylphenyl antagonists of prostaglandin D2 receptors” (Panmira Pharmaceuticals, LLC, priority 2008, dated 2013):

Each compound was assayed against T1, human DP2 receptor (Homo sapiens, UniProt Q9Y5Y4) (assay: DP2/CRTH2 radioligand binding assay using [3H]PGD2). Settings: hDP2 (CRTH2) binding assay, membranes of HEK293 cells expressing recombinant human DP2.
T1 construct: expressed in transfected cells
T1 sequence (Q9Y5Y4 1-395): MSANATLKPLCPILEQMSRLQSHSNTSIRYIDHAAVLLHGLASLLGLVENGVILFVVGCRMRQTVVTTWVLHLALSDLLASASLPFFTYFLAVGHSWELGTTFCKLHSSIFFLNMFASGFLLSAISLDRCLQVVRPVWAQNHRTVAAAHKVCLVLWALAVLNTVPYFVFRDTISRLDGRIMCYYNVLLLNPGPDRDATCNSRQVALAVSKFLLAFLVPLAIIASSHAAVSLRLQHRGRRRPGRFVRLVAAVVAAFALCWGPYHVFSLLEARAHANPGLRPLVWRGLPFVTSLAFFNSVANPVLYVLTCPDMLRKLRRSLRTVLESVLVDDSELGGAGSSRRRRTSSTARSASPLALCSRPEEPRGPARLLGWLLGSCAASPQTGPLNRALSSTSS
Description: The ability of a compound to bind to the human DP2 receptor is assessed via a radioligand binding assay using [^3H]PGD2. HEK293 cells stably expressing recombinant human DP2 are resuspended in 10 mM Hepes, 7.4 containing 1 mM DTT, lysed and centrifuged at 75,000×g to pellet the membranes. The membranes are resuspended in 10 mM Hepes, 7.4 containing 1 mM DTT and 10% glycerol to approximately 5 mg protein/ml. Membranes (2-10 μg protein/well) are incubated in 96-well plates with 1 nM [^3H]PGD2 and test compound in Assay Buffer (50 mM Hepes, 10 mM MnCl2, 1 mM EDTA, plus or minus 0.2% human serum albumin, pH 7.4) for 60 minutes at room temperature. The reactions are terminated by rapid filtration through Whatman GF/C glass fibre filter plates. The filter plates were pre-soaked in 0.33% polyethylenimine for 30 minutes at room temperature then washed in Wash Buffer (50 mM Hepes, 0.5 M NaCl pH 7.4) prior to harvesting. After harvesting, the filter plates are washed 3 times with 1 ml cold Wash Buffer then dried. Scintillant is then added to the plates and the radioactivity retained on the filters is determined on a Packard TopCount (Perkin Elmer). Specific binding is determined as total radioactive binding minus non-specific binding in the presence of 10 μM PGD2. IC50s were determined using GraphPad prism analysis of drug titration curves.

Q: `CCN(Cc1cc(C(F)(F)F)ccc1Oc1cccc(CC(=O)O)c1)C(=O)c1ccccc1` [Compound 1-17, (3-{2-[(Benzoyl-ethyl-amino)-methyl]-4-trifluoromethyl-phenoxy}-phenyl)-acetic acid] was tested. Which IC50 did it give?
A: < 300 nM

Q: Which IC50 does the source give for `CC(=O)N(Cc1cc(Br)ccc1Oc1cccc(CC(=O)O)c1)C(C)(C)Cc1ccc(F)cc1` [Compound 1-2, {3-[2-({Acetyl-[2-(4-fluoro-phenyl)-1,1-dimethyl-ethyl]-amino}-methyl)-4-bromo-phenoxy]-phenyl}-acetic acid] here?
A: < 300 nM

Q: `CCN(Cc1cc(C(F)(F)F)ccc1Oc1cc(CC(=O)O)ccc1OC)C(C)=O` [Compound 1-34, (3-{2-[(Acetyl-ethyl-amino)-methyl]-4-trifluoromethyl-phenoxy}-4-methoxy-phenyl)-acetic acid] was tested. Which IC50 did it give?
A: > 300 nM

Q: `CCN(Cc1cc(Br)ccc1Oc1cc(CC(=O)O)ccc1OC)C(=O)OC` [Compound 1-10, (3-{4-Bromo-2-[(ethyl-methoxycarbonyl-amino)-methyl]-phenoxy}-4-methoxy-phenyl)-acetic acid] was tested. Which IC50 did it give?
A: < 300 nM

Q: How did the IC50 turn out when `CCN(Cc1cc(NC(=O)c2ccc(Cl)cc2)ccc1Oc1cc(CC(=O)O)ccc1OC)C(=O)C1CC1` [Compound 1-48, (3-{4-(4-Chloro-benzoylamino)-2-[(cyclopropanecarbonyl-ethyl-amino)-methyl]-phenoxy}-4-methoxy-phenyl)-acetic acid] was run?
A: < 300 nM

Q: `COC(=O)N(CCc1ccccc1)Cc1cc(Br)ccc1Oc1cccc(CC(=O)O)c1` [Compound 1-4, (3-{4-Bromo-2-[(methoxycarbonyl-phenethyl-amino)-methyl]-phenoxy}-phenyl)-acetic acid] was tested. Which IC50 did it give?
A: < 300 nM

Q: `CN(Cc1cc(C(F)(F)F)ccc1Oc1cccc(CC(=O)O)c1)C(=O)OCc1ccccc1` [Compound 1-21, (3-{2-[(Benzyloxycarbonyl-methyl-amino)-methyl]-4-trifluoromethyl-phenoxy}-phenyl)-acetic acid] was tested. Which IC50 did it give?
A: < 300 nM

Q: `CCN(Cc1cc(C(F)(F)F)ccc1Oc1cccc(CC(=O)O)c1)S(=O)(=O)c1ccc(Nc2cccc(C)c2)cc1` [Compound 1-32, [3-(2-{[Ethyl-(4-m-tolylamino-benzenesulfonyl)-amino]-methyl}-4-trifluoromethyl-phenoxy)-phenyl]-acetic acid] was tested. Which IC50 did it give?
A: < 300 nM

Q: `CN(Cc1cc(C(F)(F)F)ccc1Oc1cccc(CC(=O)O)c1)C(=O)Cc1ccccc1` [Compound 1-16, (3-{2-[(Methyl-phenylacetyl-amino)-methyl]-4-trifluoromethyl-phenoxy}-phenyl)-acetic acid] was tested. Which IC50 did it give?
A: < 300 nM

Q: How did the IC50 turn out when `CC(=O)N(CCc1ccccc1)Cc1cc(Br)ccc1Oc1cccc(CC(=O)O)c1` [Compound 1-1, (3-{2-[(Acetyl-phenethyl-amino)-methyl]-4-bromo-phenoxy}-phenyl)-acetic acid] was run?
A: < 300 nM

Q: With `COc1ccc(CC(=O)O)cc1Oc1ccc(Br)cc1CN(Cc1ccccc1)C(C)=O` [Compound 1-9, (3-{2-[(Acetyl-benzyl-amino)-methyl]-4-bromo-phenoxy}-4-methoxy-phenyl)-acetic acid] as the compound, how does the IC50 read?
A: < 300 nM

Q: With `COc1ccc(CC(=O)O)cc1Oc1ccc(C(F)(F)F)cc1CN(Cc1ccccc1)C(C)=O` [Compound 1-35, (3-{2-[(Acetyl-benzyl-amino)-methyl]-4-trifluoromethyl-phenoxy}-4-methoxy-phenyl)-acetic acid] as the compound, how does the IC50 read?
A: < 300 nM

Q: How did the IC50 turn out when `CN(Cc1cc(C(F)(F)F)ccc1Oc1cccc(CC(=O)O)c1)S(=O)(=O)c1ccccc1C(F)(F)F` [Compound 1-24, [3-(2-{[Methyl-(2-trifluoromethyl-benzenesulfonyl)-amino]-methyl}-4-trifluoromethyl-phenoxy)-phenyl]-acetic acid] was run?
A: > 300 nM

Q: For `COC(=O)N(Cc1cc(NS(C)(=O)=O)ccc1Oc1cccc(CC(=O)O)c1)[C@@H](C)Cc1ccccc1` [Compound 1-41, [3-(4-Methanesulfonylamino-2-{[methoxycarbonyl-((S)-1-methyl-2-phenyl-ethyl)amino]-methyl}-phenoxy)-phenyl]-acetic acid], which IC50 is on record?
A: < 300 nM

Q: With `CCN(Cc1cc(NC(=O)c2ccc(Cl)cc2)ccc1Oc1cc(CC(=O)O)ccc1OC)C(C)=O` [Compound 1-46, {3-[2-[(Acetyl-ethyl-amino)-methyl]-4-(4-chloro-benzoylamino)-phenoxy]-4-methoxy-phenyl}-acetic acid] as the compound, how does the IC50 read?
A: < 300 nM

Q: How did the IC50 turn out when `CCN(Cc1cc(C(F)(F)F)ccc1Oc1cccc(CC(=O)O)c1)S(=O)(=O)c1ccc(Br)cc1` [Compound 1-31, [3-(2-{[(4-Bromo-benzenesulfonyl)-ethyl-amino]-methyl}-4-trifluoromethyl-phenoxy)-phenyl]-acetic acid] was run?
A: < 300 nM

Q: How did the IC50 turn out when `C[C@H](NCc1cc(C(F)(F)F)ccc1Oc1cccc(CC(=O)O)c1)[C@H](O)c1ccccc1` [Compound 1-12, (3-{2-[((1S,2R)-2-Hydroxy-1-methyl-2-phenyl-ethylamino)-methyl]-4-trifluoromethyl-phenoxy}-phenyl)-acetic acid] was run?
A: > 1000 nM

Q: Which IC50 does the source give for `COC(=O)N(Cc1cc(C(F)(F)F)ccc1Oc1cccc(CC(=O)O)c1)C1Cc2ccccc2C1` [Compound 1-20, (3-{2-[(Indan-2-yl-methoxycarbonyl-amino)-methyl]-4-trifluoromethyl-phenoxy}-phenyl)-acetic acid] here?
A: < 300 nM

Q: `CN(Cc1cc(C(F)(F)F)ccc1Oc1cccc(CC(=O)O)c1)S(=O)(=O)c1ccc(Cl)cc1` [Compound 1-23, [3-(2-{[(4-Chloro-benzenesulfonyl)-methyl-amino]-methyl}-4-trifluoromethyl-phenoxy)-phenyl]-acetic acid] was tested. Which IC50 did it give?
A: < 300 nM

Q: `O=C(O)Cc1cccc(Oc2ccc(C(F)(F)F)cc2CNC(=O)c2ccc(Cl)cc2)c1` [Compound 1-15, (3-{2-[(4-Chloro-benzoylamino)-methyl]-4-trifluoromethyl-phenoxy}-phenyl)-acetic acid] was tested. Which IC50 did it give?
A: > 300 nM

Q: `CCN(Cc1cc(NC(=O)c2ccc(Cl)cc2)ccc1Oc1cc(CC(=O)O)ccc1OC)C(=O)OCc1ccccc1` [Compound 1-44, {3-[2-[(Benzyloxycarbonyl-ethyl-amino)-methyl]-4-(4-chloro-benzoylamino)-phenoxy]-4-methoxy-phenyl}-acetic acid] was tested. Which IC50 did it give?
A: < 300 nM

Q: With `CCN(Cc1cc(C(F)(F)F)ccc1Oc1cccc(CC(=O)O)c1)S(=O)(=O)c1ccc(OC)cc1` [Compound 1-26, [3-(2-{[Ethyl-(4-methoxy-benzenesulfonyl)-amino]-methyl}-4-trifluoromethyl-phenoxy)-phenyl]-acetic acid] as the compound, how does the IC50 read?
A: < 300 nM

Q: For `COc1ccc(S(=O)(=O)N(C)Cc2cc(C(F)(F)F)ccc2Oc2cccc(CC(=O)O)c2)cc1` [Compound 1-25, [3-(2-{[(4-Methoxy-benzenesulfonyl)-methyl-amino]-methyl}-4-trifluoromethyl-phenoxy)-phenyl]-acetic acid], which IC50 is on record?
A: > 300 nM

Q: `O=C(O)CCn1c2c(c3ccccc31)C[C@H](NS(=O)(=O)c1ccc(F)cc1)CC2` [Ramatroban, reference compound] was tested. Which IC50 did it give?
A: > 300 nM

Q: For `COC(=O)N(Cc1cc(N(C)S(C)(=O)=O)ccc1Oc1cccc(C(C)C(=O)O)c1)[C@@H](C)Cc1ccccc1` (stereo partly drawn) [Compound 1-43, 2-[3-(4-(Methanesulfonyl-methyl-amino)-2-{[methoxycarbonyl-((S)-1-methyl-2-phenyl-ethyl)-amino]-methyl}-phenoxy)-phenyl]-propionic acid], which IC50 is on record?
A: > 1000 nM
